Read-outs that look alike come from different tables or passages of the source. Values belong to the compound of their own block, whether it stands above or below them.
Tests used:
[1] = biological target: T1, cloned recombinant human HDAC-1 (Homo sapiens, UniProt Q13547); test: Human HDAC-1 enzyme inhibition, Assay 1 ([3H]-acetylated histone substrate, scintillation counting); format: biochemical
T1 construct: made in house; host or cells: Baculovirus insect cell expression system
Description: Assay 1. HDAC inhibitors were screened against a cloned recombinant human HDAC-1 enzyme expressed and purified from a Baculovirus insect cell expression system. […] The mixture was extracted with ethyl acetate and the released [^3H]-acetic acid was quantified by scintillation counting. For inhibition studies, the enzyme was preincubated with compounds at 4° C. for 30 minutes prior to initiation of the enzymatic assay. IC50 values for HDAC enzyme inhibitors were determined by performing dose response curves with individual compounds and determining the concentration of inhibitor producing fifty percent of the maximal inhibition.

[2] = system: HCT116 cells; test: MTT assay; format: cell-based; details: Homo sapiens, HCT116 cells, 72 hours
Description: HCT116 cells (2000/well) were plated into 96-well tissue culture plates one day before compound treatment. Compounds at various concentrations were added to the cells. The cells were incubated for 72 hours at 37° C. in 5% CO2 incubator. MTT (3-[4,5-dimethylthiazol-2-yl]-2,5 diphenyl tetrazolium bromide, Sigma) was added at a final concentration of 0.5 mg/ml and incubated with the cells for 4 hours before one volume of solubilization buffer (50% N,N-dimethylformamide, 20% SDS, pH 4.7) was added onto the cultured cells. […] OD values were converted to cell numbers according to a standard growth curve of the relevant cell line.

[3] = Table 5F, read-out: Human HDAC-1 IC50
[4] = Table 5b, read-out: Human HDAC-1 IC50
[5] = Table 5d, read-out: HDAC-1 IC50

T1 sequence (Q13547 whole entry): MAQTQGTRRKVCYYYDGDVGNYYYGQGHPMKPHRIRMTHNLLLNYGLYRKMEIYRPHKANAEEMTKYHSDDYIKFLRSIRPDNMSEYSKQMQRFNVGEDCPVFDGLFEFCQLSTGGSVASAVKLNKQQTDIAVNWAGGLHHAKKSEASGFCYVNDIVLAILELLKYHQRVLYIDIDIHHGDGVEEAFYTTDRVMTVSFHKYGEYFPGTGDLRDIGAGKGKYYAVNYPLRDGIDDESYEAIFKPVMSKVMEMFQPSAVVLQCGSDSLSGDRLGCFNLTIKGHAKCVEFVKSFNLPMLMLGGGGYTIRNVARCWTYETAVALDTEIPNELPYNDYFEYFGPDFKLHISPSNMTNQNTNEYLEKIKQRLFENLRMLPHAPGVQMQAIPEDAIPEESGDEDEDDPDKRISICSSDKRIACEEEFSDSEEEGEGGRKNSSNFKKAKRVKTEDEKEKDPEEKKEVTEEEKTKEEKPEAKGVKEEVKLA

Compound: Nc1ccccc1NC(=O)c1ccc(-c2noc(-c3ccccc3)n2)cc1 [Cpd 352, N-(2-Amino-phenyl)-4-(5-phenyl-[1,2,4]oxadiazol-3-yl)-benzamide]
IC50 [1, 3]: 16 µM
IC50 ([2]; HCT-116, 72 h, Table 5F): 9 µM

Compound: Cc1nc(-c2ccc(C(=O)Nc3ccccc3N)cc2)no1 [Cpd 353, N-(2-Amino-phenyl)-4-(5-methyl-[1,2,4]oxadiazol-3-yl)-benzamide]
IC50 [1, 3]: 3 µM
IC50 ([2]; HCT-116, 72 h, Table 5F): 10 µM

Compound: Nc1ccccc1NC(=O)c1ccc(-c2noc(CN3CCCCC3)n2)cc1 [Cpd 354, N-(2-Amino-phenyl)-4-(5-piperidin-1-ylmethyl-[1,2,4]oxadiazol-3-yl)-benzamide]
IC50 [1, 3]: 15 µM
IC50 ([2]; HCT-116, 72 h, Table 5F): 5 µM

Compound: Nc1ccccc1NC(=O)c1ccc(-c2noc(CN3CCOCC3)n2)cc1 [Cpd 355, N-(2-Amino-phenyl)-4-(5-morpholin-4-ylmethyl-[1,2,4]oxadiazol-3-yl)-benzamide]
IC50 [1, 3]: 25 µM
IC50 ([2]; HCT-116, 72 h, Table 5F): 10 µM

Compound: CCCc1nc(Cc2ccc(C(=O)Nc3ccccc3N)cc2)no1 [Cpd 356]
IC50 [1, 3]: 5 µM
IC50 ([2]; HCT-116, 72 h, Table 5F): 2 µM

Compound: Nc1ccccc1NC(=O)c1ccc(CN2C(=O)COc3cccnc32)cc1 [Cpd 364, N-(2-Amino-phenyl)-4-(3-oxo-2,3-dihydro-pyrido[3,2-b][1,4]oxazin-4-ylmethyl)-benzamide]
IC50 [1, 3]: 4 µM
IC50 ([2]; HCT-116, 72 h, Table 5F): 0.6 µM

Compound: Nc1ccccc1NC(=O)c1ccc(Oc2ccccc2)cc1 [Cpd 366, N-(2-Amino-phenyl)-4-phenoxy-benzamide]
IC50 [1, 3]: 14 µM
IC50 ([2]; HCT-116, 72 h, Table 5F): 10 µM

Compound: Nc1ccccc1NC(=O)c1ccc(C(=O)Nc2ccccc2N)nc1 [Cpd 380, Pyridine-2,5-dicarboxylic acid bis-[(2-amino-phenyl)-amide]]
IC50 [1, 3]: 6 µM
IC50 ([2]; HCT-116, 72 h, Table 5F): 8 µM

Compound: COc1cc(NCc2ccc(C(=O)Nc3ccccc3N)cc2)c(C(=O)O)cc1OC [Cpd 406, 2-[4-(2-Amino-phenylcarbamoyl)-benzylamino]-4,5-dimethoxy-benzoic acid]
IC50 [1, 3]: 3 µM
IC50 ([2]; HCT-116, 72 h, Table 5F): 11 µM

Compound: Nc1ccccc1NC(=O)c1ccc(NC(=O)C(F)(F)F)cc1 [Cpd 431, N-(2-Aminophenyl)-4-(2,2,2-trifluoro-acetylamino)-benzamide]
IC50 [1, 3]: 5 µM
IC50 ([2]; HCT-116, 72 h, Table 5F): 5 µM

Compound: COc1cc(NCc2ccc(C(=O)Nc3ccccc3N)cn2)cc(OC)c1OC [Cpd 445, N-(2-Amino-phenyl)-6-[(3,4,5-trimethoxy-phenylamino)-methyl]-nicotinamide]
IC50 [1, 3]: 16 µM
IC50 ([2]; HCT-116, 72 h, Table 5F): 6 µM

Compound: Nc1ccccc1NC(=O)c1ccc(NCCn2cnc3ccccc3c2=O)nc1 [Cpd 446, N-(2-Amino-phenyl)-6-[2-(4-oxo-4H-quinazolin-3-yl)-ethylamino]-nicotinamide]
IC50 [1, 3]: 21 µM
IC50 ([2]; HCT-116, 72 h, Table 5F): 7 µM

Compound: Nc1ccccc1NC(=O)c1ccc(C#CC2(O)CCCCC2)nc1 [Cpd 463, N-(2-Amino-phenyl)-6-(1-hydroxy-cyclohexylethynyl)-nicotinamide]
IC50 [1, 3]: 12 µM
IC50 ([2]; HCT-116, 72 h, Table 5F): 6 µM

Compound: Cc1ccc(Sc2ccc(C(=O)Nc3ccccc3N)cn2)cc1 [Cpd 464, N-(2-Amino-phenyl)-6-p-tolylsulfanyl-nicotinamide]
IC50 [1, 3]: 4 µM
IC50 ([2]; HCT-116, 72 h, Table 5F): 11 µM

Compound: CCCCNc1nc(NCCc2ccccc2)nc(NCc2ccc(C(=O)Nc3ccccc3N)cc2)n1 [Cpd 473]
IC50 [1, 4]: 4 µM
IC50 ([2]; HCT-116, 72 h, Table 5b): 3 µM

Compound: Nc1ccccc1NC(=O)c1ccc(CNc2nc(NCCc3ccc(Cl)cc3)nc(NC3CC3)n2)cc1 [Cpd 475]
IC50 [1, 4]: 0.6 µM
IC50 ([2]; HCT-116, 72 h, Table 5b): 2 µM

Compound: Nc1ccccc1NC(=O)c1ccc(CNc2nc(NCCc3cccc(Cl)c3)nc(NC3CC3)n2)cc1 [Cpd 477]
IC50 [1, 4]: 1 µM
IC50 ([2]; HCT-116, 72 h, Table 5b): 0.7 µM

Compound: COc1ccc(CCNc2nc(NCc3ccc(C(=O)Nc4ccccc4N)cc3)nc(NC3CC3)n2)cc1OC [Cpd 478]
IC50 [1, 4]: 3 µM
IC50 ([2]; HCT-116, 72 h, Table 5b): 0.7 µM

Compound: COc1cccc(CCNc2nc(NCc3ccc(C(=O)Nc4ccccc4N)cc3)nc(NC3CC3)n2)c1 [Cpd 479]
IC50 [1, 4]: 0.4 µM
IC50 ([2]; HCT-116, 72 h, Table 5b): 0.6 µM

Compound: Nc1ccccc1NC(=O)c1ccc(CNc2nc(NCCc3ccccn3)nc(NC3CC3)n2)cc1 [Cpd 480]
IC50 [1, 4]: 0.8 µM
IC50 ([2]; HCT-116, 72 h, Table 5b): 0.5 µM

Compound: Nc1ccccc1NC(=O)c1ccc(CNc2nc(NCCc3cccnc3)nc(NC3CC3)n2)cc1 [Cpd 481]
IC50 [1, 4]: 6 µM
IC50 ([2]; HCT-116, 72 h, Table 5b): 0.7 µM

Compound: Nc1ccccc1NC(=O)c1ccc(CNc2nc(NC3CC3)nc(OCCc3ccccc3)n2)cc1 [Cpd 482]
IC50 [1, 4]: 0.1 µM
IC50 ([2]; HCT-116, 72 h, Table 5b): 0.7 µM

Compound: COc1cc(/C=C/C(=O)Nc2ccccc2N)ccc1CNc1cc(OC)c(OC)c(OC)c1 [Cpd 484]
IC50 [1, 5]: 20 µM
IC50 ([2]; HCT-116, Table 5d): 12 µM

Compound: Nc1nc(NCc2ccc(C(=O)Nc3ccccc3N)cc2)nc(-c2ccccc2)n1 [Cpd 484]
IC50 [1, 4]: 2 µM
IC50 ([2]; HCT-116, 72 h, Table 5b): 0.3 µM

Compound: Nc1ccccc1NC(=O)c1ccc(CNc2nc(NC3Cc4ccccc4C3)nc(-c3ccccc3)n2)cc1 [Cpd 485, N-(2-amino-phenyl)-4-{[6-(2-indanyl-amino)-4-phenyl-[1,3,5]-triazin-2-yl-amino]-methyl}-benzamide]
IC50 [1, 4]: 0.4 µM
IC50 ([2]; HCT-116, 72 h, Table 5b): 3 µM

Compound: Nc1ccccc1NC(=O)/C=C/c1ccc(CNc2cc([N+](=O)[O-])cc([N+](=O)[O-])c2)cc1 [Cpd 495]
IC50 [1, 5]: 4 µM
IC50 ([2]; HCT-116, Table 5d): 7 µM

Compound: COc1cc(OCc2ccc(/C=C/C(=O)Nc3ccccc3N)cc2)cc(OC)c1OC [Cpd 497, N-(2-Amino-phenyl)-3-[4-(3,4,5-trimethoxy-phenoxymethyl)-phenyl]-acrylamide]
IC50 [1, 5]: 15 µM
IC50 ([2]; HCT-116, Table 5d): 6 µM

Compound: COc1cc(SCc2ccc(/C=C/C(=O)Nc3ccccc3N)cc2)cc(OC)c1OC [Cpd 500, N-(2-Amino-phenyl)-3-[4-(3,4,5-trimethoxy-phenylsulfanylmethyl)-phenyl]-acrylamide]
IC50 [1, 5]: 23 µM
IC50 ([2]; HCT-116, Table 5d): 37 µM

Further lines, results first:

IC50 [1, 3]: 14 µM
IC50 ([2]; HCT-116, 72 h, Table 5F): 9 µM
Compound: Nc1ccccc1NC(=O)c1ccc(CNc2nccc3ccccc23)cc1 [Cpd 399, N-(2-Amino-phenyl)-4-(isoquinolin-1-ylaminomethyl)-benzamide]

IC50 [1, 3]: 3 µM
IC50 ([2]; HCT-116, 72 h, Table 5F): 2 µM
Compound: Cc1cc(C)cc(NCc2ccc(C(=O)Nc3ccccc3N)cc2)c1 [Cpd 407, N-(2-Amino-phenyl)-4-[(3,5-dimethyl-phenylamino)-methyl]-benzamide]

IC50 [1, 3]: 4 µM
IC50 ([2]; HCT-116, 72 h, Table 5F): 2 µM
Compound: Nc1ccccc1NC(=O)c1ccc(CNc2ccc(OCc3cccnc3)cc2)cc1 [Cpd 408, N-(2-Amino-phenyl)-4-{[4-(pyridin-3-ylmethoxy)-phenylamino]-methyl}-benzamide]

IC50 [1, 3]: 3 µM
IC50 ([2]; HCT-116, 72 h, Table 5F): 1 µM
Compound: Cc1ccc(NCc2ccc(C(=O)Nc3ccccc3N)cc2)c(C)c1 [Cpd 409, N-(2-Amino-phenyl)-4-[(2,4-dimethyl-phenylamino)-methyl]-benzamide]

IC50 [1, 3]: 1 µM
IC50 ([2]; HCT-116, 72 h, Table 5F): 6 µM
Compound: Nc1ccccc1NC(=O)c1ccc(CNc2ccc3[nH]c(=O)[nH]c3c2)cc1 [Cpd 449, N-(2-Amino-phenyl)-4-[(2-oxo-2,3-dihydro-1H-benzoimidazol-5-ylamino)-methyl]-benzamide]

IC50 [1, 3]: 3 µM
IC50 ([2]; HCT-116, 72 h, Table 5F): 2 µM
Compound: Nc1ccccc1NC(=O)c1ccc(CNc2ccc(SC(F)(F)F)cc2)cc1 [Cpd 450, N-(2-Amino-phenyl)-4-[(4-trifluoromethylsulfanyl-phenylamino)-methyl]-benzamide]

IC50 [1, 3]: 3 µM
IC50 ([2]; HCT-116, 72 h, Table 5F): 0.4 µM
Compound: CNc1nc2cc(NCc3ccc(C(=O)Nc4ccccc4N)cc3)ccc2s1 [Cpd 456, N-(2-Amino-phenyl)-4-[(2-methylamino-benzothiazol-5-ylamino)-methyl]-benzamide]

IC50 [1, 5]: 22 µM
IC50 ([2]; HCT-116, Table 5d): 10 µM
Compound: COc1cc(Nc2ccc(/C=C/C(=O)Nc3ccccc3N)cc2)cc(OC)c1OC [Cpd 481]

IC50 [1, 5]: 4 µM
IC50 ([2]; HCT-116, Table 5d): 5 µM
Compound: COc1cc(Cl)nc(NCc2ccc(/C=C/C(=O)Nc3ccccc3N)cc2)n1 [Cpd 493, N-(2-Amino-phenyl)-3-{4-[(4-chloro-6-methoxy-pyrimidin-2-ylamino)-methyl]-phenyl]-acrylamide]

IC50 [1, 5]: 3 µM
IC50 ([2]; HCT-116, Table 5d): 4 µM
Compound: COc1cc(NCc2ccc(/C=C/C(=O)Nc3ccccc3N)cc2)cc(OC)c1 [Cpd 494]

IC50 [1, 5]: 8 µM
IC50 ([2]; HCT-116, Table 5d): 13 µM
Compound: Nc1ccccc1NC(=O)/C=C/c1ccc(NCc2cccc(OC(F)(F)F)c2)cc1 [Cpd 496, N-(2-Amino-phenyl)-3-[4-(3-trifluoromethoxy-benzylamino)-phenyl]-acrylamide]

IC50 [1, 5]: 4 µM
IC50 ([2]; HCT-116, Table 5d): 10 µM
Compound: CC(=O)c1cc2c(cc1NCc1ccc(/C=C/C(=O)Nc3ccccc3N)cc1)OCO2 [Cpd 501, 3-{4-[(6-Acetyl-benzo[1,3]dioxol-5-ylamino)-methyl]-phenyl}-N-(2-amino-phenyl)-acrylamide]

IC50 [1, 5]: 3 µM
IC50 ([2]; HCT-116, Table 5d): > 25 µM
Compound: COc1ccc2nc(NCc3ccc(/C=C/C(=O)Nc4ccccc4N)cc3)sc2c1 [Cpd 502]

IC50 [1, 5]: 5 µM
IC50 ([2]; HCT-116, Table 5d): > 25 µM
Compound: Nc1ccccc1NC(=O)/C=C/c1ccc(CNc2ccc(N3CCOCC3)cc2)cc1 [Cpd 503, N-(2-Amino-phenyl)-3-{4-[(4-morpholin-4-yl-phenylamino)-methyl]-phenyl}-acrylamide]

IC50 [1, 5]: 5 µM
IC50 ([2]; HCT-116, Table 5d): > 25 µM
Compound: Nc1ccccc1NC(=O)/C=C/c1ccc(CNc2ccc(OC(F)(F)F)cc2)cc1 [Cpd 504, N-(2-Amino-phenyl)-3-{4-[(4-trifluoromethoxy-phenylamino)-methyl]-phenyl}-acrylamide]

Source: patent US7868204B2, “Inhibitors of histone deacetylase” (MethylGene Inc., priority 2001, dated 2011)
